From publication PMC6212833 (mBio, 2018)
Like-named read-outs stand apart in the source and are kept apart here. Marks after values point to notes of the source that are not given here.

Columns and labels:
[1] = tested on: B. mandrillaris trophozoites; assay: microbe, parasite or virus in culture; type: cell-based, Balamuthia mandrillaris; conditions: Balamuthia mandrillaris, 72 h
[2] = tested on: B. mandrillaris trophozoites; assay: Secondary screening dose response, B. mandrillaris trophozoites; type: cell-based, Balamuthia mandrillaris; conditions: Balamuthia mandrillaris, 72 h, read-out: B. mandrillaris IC50
Method: (§2) Secondary screening of hit compounds consisted of dose-response experiments to measure the toxicity of each compound to B. mandrillaris trophozoites, HFF-1 human fibroblast cells, and H4 human neuroglioma cells. Four 384-well plates were prepared prior to addition of drug as follows: one opaque plate (Corning) seeded with 3,000 HFF-1 cells per well in 60 µl complete media, one opaque plate seeded with 2,000 H4 cells per well in 60 µl complete media, one opaque plate containing 30 µl axenic media, and one clear plate (Corning) containing 30 µl axenic media. Opaque plates were used to measure the viability of trophozoites in the CTG assay, and clear plates were used for microscopic examination of cyst formation. HFF-1 and H4 plates were seeded 24 h prior to drug addition. The selected primary screen hits were added from 10 mM DMSO stocks into wells of all four test plates to reach final concentrations ranging from 0.06 µM to 30 µM (10 concentrations, 2-fold serial dilution). Negative-control wells received concentrations of DMSO corresponding to the amount of DMSO in each tested drug well (reaching a maximum of 0.3% DMSO). B. mandrillaris trophozoites were resuspended in axenic media and added to the plates containing drug dilutions in axenic media at a density of 3,000 amoebae per well in a final volume of 60 µl media. All plates were incubated for 72 h. Throughout the incubation period, the clear-bottom B. mandrillaris plate was monitored for large-scale changes to population encystment in response to drug treatment. After the 72-h incubation, 30 µl of CTG reagent was added to all wells of the opaque assay plates and luminescence was measured with a Promega GloMax-Multi+ plate reader at 2, 4, and 8 h after CTG addition.

[3] = tested on: HFF-1 human fibroblast cells; assay: Secondary screening dose response, toxicity to HFF-1 cells; type: cell-based; conditions: Homo sapiens, HFF-1; 72 h; approximated from dose-response curves; read-out: HFF1 IC50
Method: as §2

[4] = tested on: H4 human neuroglioma cells; assay: Secondary screening dose response, toxicity to H4 cells; type: cell-based; conditions: Homo sapiens; 72 h; approximated from dose-response curves
[5] = tested on: B. mandrillaris trophozoites; assay: Side-by-side dose response, trophozoite viability; type: cell-based, Balamuthia mandrillaris; conditions: Balamuthia mandrillaris, 72 h, read-out: IC50, B. mandrillaris trophozoites, 72 h
Method: (§1) B. mandrillaris trophozoites were seeded at 4,000 amoebae per well into opaque and clear-bottom 96-well plates (Corning). Homogenous populations of B. mandrillaris cysts generated by galactose induction were seeded at 4,000 amoebae per well into opaque 96-well plates. HFF-1 (fibroblast), H4 (glial), U87 (glial), HEK-293T (kidney), and Hep-G2 (liver) cells were seeded at 3,000 cells per well in opaque 96-well plates 24 h prior to addition of drug. Stocks of nitroxoline (Selleck Chemicals) were dissolved in 100% DMSO at 10 mM. Stocks of azithromycin (Selleck Chemicals), pentamidine isethionate (Selleck Chemicals), and miltefosine (Selleck Chemicals) were dissolved in water at 10 mM. Drug stocks were serially diluted in water to generate 12-point dilution series, which were then used to treat assay wells containing B. mandrillaris or human cells at final concentrations ranging from 0.39 µM to 400 µM in 100-µl total well volumes. Control wells were treated with vehicle (DMSO or water) at concentrations corresponding to the final vehicle concentrations in each drug dilution series. After incubation for 72 h, 50 µl of CTG was added to all assay wells. Luminescence was measured with a Promega GloMax-Multi+ plate reader 2, 4, and […] after CTG addition. All dose-response experiments were performed with at least three independent biological replicates. IC50 values were determined as previously described. To quantify encystment under treated and untreated conditions, amoebae in individual assay wells were resuspended thoroughly and the number of cysts and number of trophozoites in 10-µl samples were counted by the use of a hemocytometer (SKC, Inc.). Cysts and trophozoites are morphologically distinct, making them simple to distinguish with bright-field microscopy (example images are shown in Fig. S1 in the supplemental material). Encystment assays were performed with three independent biological replicates.

B. mandrillaris cysts = assay: Dose response, viability of preformed galactose-induced cysts; type: cell-based, Balamuthia mandrillaris; conditions: 72 h
Method: Following the findings of a previous study, encystment of B. mandrillaris was induced by galactose exposure ([74]). B. mandrillaris trophozoites were grown to log phase in axenic media, and galactose was added to reach a final concentration of 12% (vol/vol). Amoebae were cultured in the induction medium until trophozoites were no longer observed (approximately 10 days). Galactose-induced cysts transition back to trophozoites after approximately 3 days of incubation in galactose-free axenic medium. Therefore, all assays with cysts were completed in the induction medium. […] All incubation steps for B. mandrillaris growth were carried out at 37°C with 5% CO2.
as §1

[6] = Cytotoxicity dose response, U87; type: cell-based; conditions: human, U87 (glial) cells, unit not given in Table S3, drug concentrations in µM, read-out: CC50 U87 cell line
Method: as §1

[7] = Cytotoxicity dose response, H4; type: cell-based; conditions: human, H4 (glial) cells, unit not given in Table S3, drug concentrations in µM, read-out: CC50 H4 cell line
Method: as §1

[8] = Cytotoxicity dose response, HEK-293T; type: cell-based; conditions: human, HEK-293T (kidney) cells, unit not given in Table S3, drug concentrations in µM, read-out: CC50 HEK-293T cell line
Method: as §1

[9] = Cytotoxicity dose response, HFF-1; type: cell-based; conditions: human, HFF-1 (fibroblast) cells, unit not given in Table S3, drug concentrations in µM, read-out: CC50 HFF-1 cell line
Method: as §1

[10] = Cytotoxicity dose response, Hep-G2; type: cell-based; conditions: human, Hep-G2 (liver) cells, unit not given in Table S3, drug concentrations in µM, read-out: CC50 Hep-G2 cell line
Method: as §1

[11] = Cytotoxicity, mean of all cell lines; type: cell-based; conditions: human, U87, H4, HEK-293T, HFF-1 and Hep-G2 cell lines (mean of all), unit inferred
Method: as §1

B. mandrillaris [12] = assay: Encystment assay, counts of cysts and trophozoites; type: cell-based, Balamuthia mandrillaris; conditions: 72 h of treatment with different drug concentrations
Method: as §1

B. mandrillaris [13] = assay: Recrudescence assay on HFF-1 monolayer after drug treatment; type: cell-based, Balamuthia mandrillaris
[14] = tested on: B. mandrillaris trophozoites; assay: Drug combination dose matrices, trophozoite viability (EOHSA model); type: cell-based, Balamuthia mandrillaris; conditions: Fig S2A, 72 h
Method: Experiments measuring the effect of drug combinations were carried out similarly to the dose-response experiments described above. B. mandrillaris trophozoites were seeded into opaque 96-well plates (Corning) at a density of 4,000 amoebae per well and then treated with concentrations of nitroxoline that differed across the rows of each plate and with concentrations of either miltefosine or pentamidine isethionate that differed down the columns to generate 7-by-7 dose combination matrices. Final drug concentrations ranged from 0.5 to 10 µM, from 10 to 100 µM, and from 1 to 100 µM for nitroxoline, miltefosine, and pentamidine isethionate, respectively. After incubation with drug or vehicle was performed for 72 h, CTG was added to all assay wells and luminescence was measured with a Promega Glomax-Multi+ plate reader. The percent effect of each drug combination was calculated as the reduction in luminescence value relative to vehicle-only controls. The additive effect of drug combinations was assessed using the excess over highest single agent (EOHSA) model ([76], [77]). […] Drug combination experiments were performed with three independent replicates.

B. mandrillaris [15] = tested on: B. mandrillaris; parameters: method as in PMID 15347743, PMID 23869955, PMID 16579814; conditions: in vitro; cited from earlier work

Structure (SMILES): CNC(=C[N+](=O)[O-])NCCSCc1ccc(CN(C)C)o1 [Ranitidine]
- inhibition at 20 µM [1]: 68%
- IC50 [2]: > 30 µM
- IC50 [3]: > 30 µM
- IC50 [4]: > 30 µM

Structure (SMILES): CCCCCCCCCCCCCCCCOP(=O)([O-])OCC[N+](C)(C)C [Miltefosine]
- IC50 [5]: 63.2 µM
- IC50 (B. mandrillaris cysts; Balamuthia mandrillaris, read-out: IC50, B. mandrillaris cysts, preformed cysts, 12% galactose induction medium, 72 h): 76.5 µM
- IC50 (B. mandrillaris cysts; preformed cysts, 12% galactose induction medium, read-out: IC50, B. mandrillaris cysts): 76.5 µM
- CC50 at 72 h [6]: 34.7 µM
- CC50 at 72 h [7]: 8.4 µM
- CC50 at 72 h [8]: 68.8 µM
- CC50 at 72 h [9]: 67.1 µM
- CC50 at 72 h [10]: 66.1 µM
- CC50 at 72 h [11]: 49 µM
- encystment response (B. mandrillaris [12]): no substantial number of cysts was observed at any concentration
- Mean no. of days for host cell clearance ± SE (B. mandrillaris [13]; 28 µM for 72 h, then drug-free coculture with HFF-1, NRT = no recovery of trophozoites or host cell destruction observed through 28 days): 1.5 ± 0.33 days
- Mean no. of days for host cell clearance ± SE (B. mandrillaris [13]; 56 µM for 72 h, then drug-free coculture with HFF-1, 28-day experiment): 3.5 ± 2.64 days
- Mean no. of days for host cell clearance ± SE (B. mandrillaris [13]; 84 µM for 72 h, incomplete recovery of trophozoites and destruction of host cells on day 28): >28^b days
- concentration that completely eliminated B. mandrillaris populations (B. mandrillaris [13]; 72 h treatment, no recovery after 28 days of coculture): 112 µM
- Mean no. of days for host cell clearance ± SE (B. mandrillaris [13]; […] for 72 h, NRT = no recovery of trophozoites or host cell destruction observed through 28 days): NRT^a
- Percent inhibition of B. mandrillaris viability ([14]; miltefosine 10 µM alone): -12%
- Percent inhibition of B. mandrillaris viability ([14]; miltefosine 30 µM alone): -13%
- Percent inhibition of B. mandrillaris viability ([14]; miltefosine 50 µM alone): 19%
- Percent inhibition of B. mandrillaris viability ([14]; miltefosine 60 µM alone): 44%
- Percent inhibition of B. mandrillaris viability ([14]; miltefosine 80 µM alone): 91%
- Percent inhibition of B. mandrillaris viability ([14]; miltefosine 100 µM alone): 96%
- inhibition of amoebic growth (B. mandrillaris [15]): amoebicidal or amoebistatic activity

Structure (SMILES): C[C@@H](c1ncncc1F)[C@](O)(Cn1cncn1)c1ccc(F)cc1F [voriconazole]
- inhibition of amoebic growth (B. mandrillaris [15]): amoebicidal or amoebistatic activity

Structure (SMILES): C=C1C[C@@H]2[C@H](CC[C@]3(C)C(=O)CC[C@@H]23)[C@@]2(C)C=CC(=O)C=C12 [Exemestane]
- inhibition at 20 µM [1]: 47%
- IC50 [2]: > 30 µM
- IC50 [3]: > 30 µM
- IC50 [4]: > 30 µM

Structure (SMILES): OC(Cn1cncn1)(Cn1cncn1)c1ccc(F)cc1F [fluconazole]
- inhibition of amoebic growth (B. mandrillaris [15]): little to no inhibition

Structure (SMILES): CC[C@H]1OC(=O)[C@H](C)[C@@H](O[C@H]2C[C@@](C)(OC)[C@@H](O)[C@H](C)O2)[C@H](C)[C@@H](O[C@@H]2O[C@H](C)C[C@H](N(C)C)[C@H]2O)[C@](C)(O)C[C@@H](C)CN(C)[C@H](C)[C@@H](O)[C@]1(C)O [Azithromycin]
- IC50 [5]: 244 µM
- IC50 (B. mandrillaris cysts; Balamuthia mandrillaris, preformed cysts, 12% galactose induction medium, read-out: IC50, B. mandrillaris cysts): 788 µM
- CC50 at 72 h [6]: 55 µM
- CC50 at 72 h [7]: 95 µM
- CC50 at 72 h [8]: 120 µM
- CC50 at 72 h [9]: 116 µM
- CC50 at 72 h [10]: 86.4 µM
- CC50 at 72 h [11]: 94.4 µM
- encystment response (B. mandrillaris [12]): no substantial number of cysts was observed at any concentration
- inhibition of amoebic growth (B. mandrillaris [15]): amoebicidal or amoebistatic activity

Structure (SMILES): Cc1c(NC(=O)c2cccnc2)c(=O)n(-c2ccccc2)n1C [Nifenazone]
- inhibition at 20 µM [1]: 70%
- IC50 [2]: > 30 µM
- IC50 [3]: > 30 µM
- IC50 [4]: > 30 µM

Structure (SMILES): Nc1[nH]c(=O)ncc1F [flucytosine]
- inhibition of amoebic growth (B. mandrillaris [15]): little to no inhibition
